This note sets out measurements from article PMC10432564, “Pharmacological perturbation of the phase-separating protein SMNDC1” (Nature Communications, 2023).

One assay deals with SMNDC1-GFP αTC1 clones. As to the kind of experiment: Live imaging of endogenously tagged SMNDC1-GFP. It is filed as cell-based, mouse. The text has this: Cell lines with fluorescent tags in the endogenous intron loci of different genes were generated as described in Serebrenik et al., and Reicher et al.[39],[74]. Cells were transiently transfected using Avalanche-Everyday Transfection Reagent with three plasmids in parallel: (1) the donor plasmid containing the artificial intron with splice acceptor and splice donor site, the fluorescent tag GFP or RFP, and a possible correction for the frame of the targeted intron, (2) a pX330 backbone containing Cas9 and the gRNA against the donor plasmid, and (3) a plasmid expressing the gRNA against the target intron (see table below). After 3–5 days, GFP- and/or RFP-positive cells were sorted on a SONY SH800 Cell Sorter to get fluorescent single cell clones. Clones were validated for the correct integration of the intron-tag via comparison of live cell images to publicly available or in-house IF images, genomic DNA PCR amplification of the respective loci, and western blots with antibodies against the target protein and/or the fluorescent tag.
Cells were imaged on a PerkinElmer Opera Phenix automated microscope with 500 ms exposure time in either GFP or RFP channel, or on a Zeiss LSM 980 microscope. For condition-independent identification nuclear markers such as Hoechst or DRAQ5^TM were used.
Images were analyzed using the high-content image acquisition and analysis software Harmony® 4.9 developed by PerkinElmer. First, nuclei were identified in the channel of the nuclear marker (DAPI/ Hoechst/ DRAQ5^TM) (with Method C, Common Threshold 0.75, Area > 10 µm^2). After the identification of nuclei, their corresponding cytoplasm was also identified using the respective nucleic acid marker (with Method A, Individual Threshold 0.15). Even though the highest staining of these nuclear markers is obviously detected in the nucleus they still produce a significant staining of the cytoplasm above background. After defining the respective cell areas, mean intensity in the different channels was measured. Finally, spots were identified with the according “Spots” algorithm (with Method A, Relative Spot Intensity > 0.053, Splitting Sensitivity: 1.0).

A further assay has as its target T1, SMNDC1 Tudor domain (Homo sapiens, UniProt O75940).
T1 sequence (O75940 65-128): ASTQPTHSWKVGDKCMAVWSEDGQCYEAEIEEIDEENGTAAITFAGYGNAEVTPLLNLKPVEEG
As to the kind of experiment: AlphaScreen, SMNDC1 Tudor domain / sDMA-peptide interaction. To be noted: for effect of the structural modification on potency / IC50: structure-activity relationships around compound 1; for selectivity between SMNDC1 and SMN: AlphaScreen SMNDC1 vs SMN. Background: Bead proximity is the source of the signal in Alpha formats.

The next assay concerns the target SMN Tudor domain (Homo sapiens, UniProt Q16637). As to the kind of experiment: AlphaScreen, SMN Tudor domain / sDMA-peptide interaction.

Molecules are shown by their SMILES.

SMN Tudor domain, sequence (Q16637 84-147): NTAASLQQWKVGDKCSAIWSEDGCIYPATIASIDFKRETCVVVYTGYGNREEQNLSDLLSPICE
Experimental for SMN Tudor domain: To establish an AlphaScreen[50], we coupled donor beads to purified SMNDC1’s (or SMN’s) Tudor domain via a His-Tag and acceptor beads to a biotinylated peptide corresponding to the C-terminal region of the Small nuclear ribonucleoprotein Sm D3 containing four sDMAs (Fig. 4a). […] To identify ideal concentrations for screening, we performed a cross-titration of Tudor domains and binding peptides (Supplementary Fig. 3b).
(§1) The AlphaScreen was conducted in 20 mM sodium phosphate pH 6.5, 50 mM NaCl, Tween 0.01%, BSA 0.1%. Protein concentration was optimized for each batch of purified protein. Optimal concentration was chosen at the lowest concentration with ~80% of maximum signal. […] In the first step, 10 µl of the protein solution containing either SMNDC1’s or SMN’s Tudor domain coupled to a 6xHis-Tag were distributed to 384-well plates pre-spotted with compounds and controls, shaken and incubated for 30 min at RT. Afterwards, 10 µl of peptide solution was added to each well and incubated for 1 h at RT. Finally, 5 µl of a solution containing both Streptavidin Donor and nickel chelate (Ni-NTA) Acceptor beads was added and again incubated for 1 h at RT.
Text for SMNDC1 Tudor domain: To pharmacologically perturb SMNDC1 function, we set out to identify small molecule inhibitors of SMNDC1’s Tudor domain based on perturbing its interaction with a dimethylarginine peptide. To establish an AlphaScreen[50], we coupled donor beads to purified SMNDC1’s (or SMN’s) Tudor domain via a His-Tag and acceptor beads to a biotinylated peptide corresponding to the C-terminal region of the Small nuclear ribonucleoprotein Sm D3 containing four sDMAs (Fig. 4a). […] To identify ideal concentrations for screening, we performed a cross-titration of Tudor domains and binding peptides (Supplementary Fig. 3b).
as §1
Category Parameter Description
Assay Type of assay In vitro AlphaScreen / luminescence proximity
Target Tudor domain of SMNDC1
Primary measurement Decrease in luminescence signal reflecting
disruption of heterodimeric complex between
SMNDC1-Tudor domain and a peptide
corresponding to the C-terminus of Small nuclear
ribonucleoprotein Sm D3 containing 4 sDMAs
Key reagents AlphaScreen no-wash assay kit containing
Streptavidin Donor beads and nickel chelate (Ni-
NTA) AlphaScreen Acceptor beads (PerkinElmer
Assay protocol Described in Methods section
Screen Format PerkinElmer OptiPlate-384 well plate
Concentration(s) tested Typically 10 μM (0.1% DMSO)
Plate controls 32 positive control wells (Mitoxantrone, quencher),
32 negative control wells (DMSO)
Reagent/ compound dispensing system Echo 520 Liquid Handler Multidrop™ Combi
Normalization Raw signal was normalized plate-specifically by
correcting row and column-specific mean signals to
the mean signal of the entire plate, each after
removing the highest and lowest 25% of values. Raw
signal was then converted to percent of control
signal, but linear regression to plate-specific mean
signal of DMSO wells (set to 100 percent of control)
and positive control wells (set to 0% of control), after
outlier removal using a Grubbs test.
unspecific quenchers), Secondary screen (with

Turning to `OCCCCCCO` [1,6-hexanediol, reference compound], the “focal localization of SMNDC1-GFP within the nucleus” value with SMNDC1-GFP αTC1 clones (live cells, 2.5% or 5%) is recorded as “losing its focal localization within the nucleus”.
As usually defined, the IC50 is the concentration at which inhibition is half-maximal. A lower IC50 goes with inhibition by little substance. Turning to `O=C(Nc1nc(-c2ccccn2)cs1)c1ccc(S(=O)(=O)N2CCOCC2)cc1` [Fig. 4e], the IC50 is 770 nM against SMNDC1 Tudor domain and 0.64 µM on SMN Tudor domain.
The like results for `COc1ccc(Cc2nnc(NC(=O)Cc3cccs3)s2)cc1OC` [Fig. 4g] were, in that order, 2300 nM and 5.8 µM.
The corresponding values for `CC1NC(=O)NC1CCCCCC(=O)OCC(=O)c1ccccc1` (centres unmarked) [Fig. 4h] are 190 nM and 4 µM.
The corresponding values for `CCc1ccccc1NC(=O)c1cccc2c1C(=O)N(c1ccc(OC)cc1)C2` [Fig. 4i] are 1400 nM and 3.9 µM.
As for `Cc1cc(C)n2c(Nc3ccccc3C)c(-c3ccccn3)nc2n1` [Fig. 4k], the IC50 against SMNDC1 Tudor domain is 1100 nM; against SMN Tudor domain it was 1.2 µM.
The corresponding values for `CCN(CC)S(=O)(=O)c1ccc(C(=O)Nc2nc(-c3cccnc3)cs2)cc1` [compound 3] are greater than 50000 nM and greater than 50 µM.
The like results for `CN(C)S(=O)(=O)c1ccc(C(=O)Nc2nc(-c3ccncc3)cs2)cc1` [compound 4] were, in that order, 9560 nM and 3.03 µM.
The like results for `COc1ccccc1-c1csc(NC(=O)c2ccc(S(=O)(=O)N(C)C)cc2)n1` [compound 5] were, in that order, 920 nM and 1.7 µM.
On to `Cc1ccc(-c2csc(NC(=O)c3ccc(S(=O)(=O)N4CCCC4)cc3)n2)o1` [compound 6], for which the concentration for half-maximal inhibition (IC50) against SMNDC1 Tudor domain is 33700 nM; at SMN Tudor domain it was 29.4 µM.
As to `O=C(Nc1nc(-c2cccs2)cs1)c1ccc(S(=O)(=O)N2CCCC2)cc1` [compound 7], the IC50 is greater than 50000 nM against SMNDC1 Tudor domain and greater than 50 µM on SMN Tudor domain.
Turning to `N#Cc1cccc(C(=O)Nc2nc(-c3ccc[nH]3)cs2)c1` [compound 8], on SMNDC1 Tudor domain, the IC50 turned out to be 4050 nM and the “effect of the structural modification on potency / IC50” value (from here on “effect … on potency / IC50”) is given as “some loss of potency”. In addition, half-maximal inhibition against SMN Tudor domain (IC50) was put at 8.24 µM.
As to `CCOC(=O)c1csc(NC(=O)c2ccc(S(=O)(=O)N(C)C)cc2)n1` [compound 9], on SMNDC1 Tudor domain, the IC50 is greater than 50000 nM and the “effect … on potency / IC50” value is “complete loss of activity”. For the same molecule, the IC50 at SMN Tudor domain was greater than 50 µM. Also, in the assay with SMNDC1-GFP αTC1 clones (50 µM, 12–16 h), the “SMNDC1-GFP spots within the nucleus” value is given as “not observed” and the “SMNDC1 within the nucleus (nuclear SMNDC1-GFP)” value was “not observed”.
Consider `Cc1sc(NC(=O)c2ccc(S(=O)(=O)N(C)C)cc2)nc1-c1ccccn1` [compound 10], for which, at SMNDC1 Tudor domain, the concentration for half-maximal inhibition (IC50) is 450 nM and the “effect … on potency / IC50” value is reported as “without loss of potency”. At SMN Tudor domain, this molecule yielded an IC50 of 1.26 µM.
On to `CCc1sc(NC(=O)c2ccc(S(=O)(=O)N(C)C)cc2)nc1-c1ccccn1` [compound 11], for which the IC50 at SMNDC1 Tudor domain came to 1400 nM; at SMN Tudor domain it was 3.52 µM.
The corresponding values for `CN(C)S(=O)(=O)c1ccc(C(=O)Nc2nc(-c3ccccn3)c(Br)s2)cc1` [compound 12] are 1370 nM and 3.84 µM.
The like results for `Nc1csc(-c2ccccn2)n1` [compound 14] were, in that order, 1780 nM and 5.35 µM.
For `Nc1ncc(-c2ccccn2)s1` [compound 15], at SMNDC1 Tudor domain, the IC50 is greater than 50000 nM; the “selectivity between SMNDC1 and SMN” value is “preferentially inhibited SMN over SMNDC1”; the “effect … on potency / IC50” value is reported as “significant loss of activity”. The same molecule came in with an IC50 against SMN Tudor domain of 15.2 µM.
Regarding `Nc1nc(-c2ccccn2)co1` [compound 16], the results for the IC50 at SMNDC1 Tudor domain and at SMN Tudor domain were 20700 nM and greater than 50 µM, respectively. Further, at SMNDC1 Tudor domain (thiazole replaced with analogous oxazole), the drop in potency is listed as 40 fold.
Take `COc1ccc(CCNc2nc(-c3ccccn3)cs2)cc1OC` [compound 17]: the results for the IC50 at SMNDC1 Tudor domain and against SMN Tudor domain were 1420 nM and 2 µM, respectively.
The like results for `O=S(=O)(Nc1nc(-c2ccccn2)cs1)c1ccccc1` [compound 18] were, in that order, 1000 nM and 2.55 µM.
Take `N=C(N)Nc1nc(-c2ccccn2)cs1` [compound 19]: the IC50 at SMNDC1 Tudor domain was 14500 nM; on SMN Tudor domain it was 13.2 µM.
The corresponding values for `O=C(Nc1nc(-c2ccccn2)cs1)C1CC1` [compound 20] are 2120 nM and 2.93 µM.
The corresponding values for `CCn1ccc(C(=O)Nc2nc(-c3ccccn3)cs2)n1` [compound 21] are 1090 nM and 1.16 µM.
The like results for `Cc1ccc(C(=O)Nc2nc(-c3ccccn3)cs2)o1` [compound 22] were, in that order, 470 nM and 0.9 µM.
For the molecule `Cc1ccnc2nc(C(=O)Nc3nc(-c4ccccn4)cs3)nn12` [compound 24], the IC50 against SMNDC1 Tudor domain worked out at 810 nM; at SMN Tudor domain, 1.35 µM.
For the molecule `CC(C)(C)CNC(=O)c1ccc(C(=O)Nc2nc(-c3ccccn3)cs2)cc1` [compound 25], on SMNDC1 Tudor domain, the IC50 turned out to be 1470 nM; the “selectivity between SMNDC1 and SMN” value is listed as “increased selectivity for SMNDC1 over SMN”. Moreover, the IC50 against SMN Tudor domain is 9.82 µM.
For `O=C(O)c1ccc(C(=O)Nc2nc(-c3ccccn3)cs2)cc1` [compound 26], the IC50 amounted to 1100 nM against SMNDC1 Tudor domain and 3.38 µM against SMN Tudor domain.
The like results for `O=C(Nc1nc(-c2ccccn2)cs1)c1ccc(-n2cnnn2)cc1` [compound 27] were, in that order, 730 nM and 1.23 µM.
In the case of `CC(C)(C)OC(=O)NCCNC(=O)c1ccc(C(=O)Nc2nc(-c3ccccn3)cs2)cc1` [compound 28], the IC50 against SMN Tudor domain was determined as 15.4 µM. In addition, the “effects on SMNDC1 and SRRM2 localization” value with SMNDC1-GFP αTC1 clones (double-tagged SMNDC1-GFP SRRM2-RFP αTC1-clone, 50/25/12.5/6.25/3.125 µM) is recorded as “could confirm the effects observed for the non-selective compound 1”.
